The assay deals with T1, full-length beta-catenin (Axin site) (Homo sapiens, UniProt P35222).
T1 construct: 15 nM full-length beta-catenin, 20 nM FITC labeled peptide in buffer
T1 sequence (P35222 1-781): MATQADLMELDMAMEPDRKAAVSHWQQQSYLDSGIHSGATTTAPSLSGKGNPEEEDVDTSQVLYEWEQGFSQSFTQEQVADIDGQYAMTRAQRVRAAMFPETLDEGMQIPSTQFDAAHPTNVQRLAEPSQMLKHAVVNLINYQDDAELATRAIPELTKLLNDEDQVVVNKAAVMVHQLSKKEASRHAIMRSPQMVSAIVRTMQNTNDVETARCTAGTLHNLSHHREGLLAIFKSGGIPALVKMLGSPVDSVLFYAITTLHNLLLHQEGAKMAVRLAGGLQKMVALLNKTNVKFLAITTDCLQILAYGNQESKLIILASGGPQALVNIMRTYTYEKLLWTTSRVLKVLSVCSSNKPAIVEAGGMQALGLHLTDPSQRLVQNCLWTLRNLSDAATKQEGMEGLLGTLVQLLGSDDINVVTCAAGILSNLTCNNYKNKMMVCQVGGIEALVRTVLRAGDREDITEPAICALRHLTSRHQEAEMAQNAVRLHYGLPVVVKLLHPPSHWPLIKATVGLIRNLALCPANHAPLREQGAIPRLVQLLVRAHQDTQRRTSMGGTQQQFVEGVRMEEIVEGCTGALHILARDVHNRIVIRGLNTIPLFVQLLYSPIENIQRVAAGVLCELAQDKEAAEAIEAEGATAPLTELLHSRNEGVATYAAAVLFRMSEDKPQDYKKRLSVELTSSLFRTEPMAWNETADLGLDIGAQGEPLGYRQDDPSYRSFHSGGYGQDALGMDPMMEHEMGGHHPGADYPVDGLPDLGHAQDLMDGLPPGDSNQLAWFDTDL
As to the kind of experiment: Competition fluorescence polarization assay (Axin site probe). In kind it is binding. Particulars: competition fluorescence polarization, Table 2; read-out: in vitro FP EC50. The procedure:
FIG. 1. […] Peptide solutions were prepared in buffer (50 mM Tris pH 8.0, 250 mM NaCl, 2% glycerol, 0.5 mM EDTA, 0.02% w/v sodium azide) using a 3-fold serial dilution from 5 μM. Probe solution (15 nM full-length 13-Catenin, 20 nM FITC labeled peptide (FITC-PEG1-PQ-S5-ILD-S5-HVRRVWR (SEQ ID NO: 1) (hydrocarbon staple formed by two S5 via olefin metathesis)) in buffer) was prepared and incubated for 5 minutes, then 40 μL per well plated in a black polystyrene 384-well plate (Corning). Equal volume of the titrated peptide was added to the plate and incubated protected from light for 15 minutes prior to read. Reads were performed on a Spectramax M5 (Molecular Devices) in duplicate.
FIG. 7. […] BCL9 Competition FP assay: Peptide solutions were prepared in buffer (50 mM Tris pH 8.0, 250 mM NaCl, 2% glycerol, 0.5 mM EDTA, 0.02% w/v sodium azide) using a 3-fold serial dilution from 10 μM. Probe solution (250 nM full-length beta-catenin, 20 nM 5FAM labeled peptide in buffer) was prepared and 40 μL per well plated in a black polystyrene 384-well plate (Corning). Equal volume of the titrated peptide was added to the plate and incubated protected from light for 15 minutes prior to read. Reads were performed on a Spectramax M5 (Molecular Devices) in duplicate. Probe: Ac-[…]nLeu-Leu-2NapA-bala-bala-Lys5FAM-NH2 (SEQ ID NO: 2) (from Biochemistry, 2009, 48 (40), pp 9534-9541). Axin Competition FP assay: Peptide solutions were prepared in buffer (50 mM Tris pH 8.0, 250 mM NaCl, 2% glycerol, 0.5 mM EDTA, 0.02% w/v sodium azide) using a 3-fold serial dilution from 5 μM. Probe solution (15 nM full-length beta-catenin, 20 nM FITC labeled peptide in buffer) was prepared and incubated for 5 minutes, then 40 μL per well plated in a black polystyrene 384-well plate (Corning). Equal volume of the titrated peptide was added to the plate and incubated protected from light for 15 minutes prior to read. Reads were performed on a Spectramax M5 (Molecular Devices) in duplicate. Probe: FITC-StAx-33 from Grossmann et al. PNAS 109 17942-17947.
Regarding `CC[C@H](C)[C@@H]1NC(=O)[C@](C)(NC(=O)[C@H](C)NC(=O)[C@@H]2CCCN2C(C)=O)CCCC=CCCCCCC[C@@](C)(C(=O)N[C@@H](CCCNC(=N)N)C(=O)N[C@H](C(=O)N[C@@H](Cc2c[nH]c3ccccc23)C(N)=O)C(C)C)NC(=O)[C@H](C(C)C)NC(=O)[C@H](Cc2c[nH]cn2)NC(=O)[C@H](C)NC(=O)[C@H](CC(=O)O)NC(=O)[C@H](CC(C)C)NC1=O` (single isomer, unassigned) [FP0212s Isomer 2, Ac-P-A-R5-I-L-D-A-H-V-S8-R-V-W-NH2], the 50% effective concentration (EC50) lay within 100 to 500 nM.
Next, `CC[C@H](C)[C@@H]1NC(=O)[C@H](Cc2c[nH]cn2)NC(=O)[C@H](C)NC(=O)[C@H](CC(=O)O)NC(=O)[C@H](CC(C)C)NC(=O)[C@H]([C@@H](C)CC)NC(=O)[C@](C)(NC(=O)[C@H](C)NC(C)=O)CCCCCCC=CCOC(=O)N2CC[C@@](C(=O)N[C@@H](CCCNC(=N)N)C(=O)N[C@H](C(=O)N[C@@H](Cc3c[nH]c4ccccc34)C(N)=O)C(C)C)(C2)NC1=O` (single isomer, unassigned) [FP0217c Isomer 1, Ac-AR8ILDAHIMBRVW (SEQ ID NO: 280)]: 500 to 5000 nM; `CC[C@H](C)[C@@H]1NC(=O)[C@H](Cc2c[nH]cn2)NC(=O)[C@H](C)NC(=O)[C@H](CC(=O)O)NC(=O)[C@H](CC(C)C)NC(=O)[C@H]([C@@H](C)CC)NC(=O)[C@](C)(NC(=O)[C@H](C)NC(C)=O)CCCCCCC=CCCC[C@@](C)(C(=O)N[C@@H](CCCNC(=N)N)C(=O)N[C@H](C(=O)N[C@@H](Cc2c[nH]c3ccccc23)C(N)=O)C(C)C)NC1=O` (single isomer, unassigned) [FP0217s Isomer 1, Ac-A-R8-I-L-D-A-H-I-S5-R-V-W-NH2]: less than 100 nM.
Next, `CC[C@H](C)[C@@H]1NC(=O)[C@H](Cc2c[nH]cn2)NC(=O)[C@H](C)NC(=O)[C@H](CC(=O)O)NC(=O)[C@H](CC(C)C)NC(=O)[C@H]([C@@H](C)CC)NC(=O)[C@](C)(NC(=O)[C@H](C)NC(C)=O)CCCCCCC=CCCC[C@@](C)(C(=O)N[C@@H](CCCNC(=N)N)C(=O)N[C@H](C(=O)N[C@@H](Cc2c[nH]c3ccccc23)C(N)=O)C(C)C)NC1=O` (single isomer, unassigned) [FP0217s Isomer 2, Ac-A-R8-I-L-D-A-H-I-S5-R-V-W-NH2]: less than 100 nM.
To `CC[C@H](C)[C@@H]1NC(=O)[C@H](Cc2c[nH]cn2)NC(=O)[C@H](C)NC(=O)[C@H](CC(=O)O)NC(=O)[C@H](CC(C)C)NC(=O)[C@H]([C@@H](C)CC)NC(=O)[C@](C)(NC(=O)[C@H](C)NC(C)=O)CN(C)C(=O)OCC=CCCCCCC[C@@](C)(C(=O)N[C@@H](CCCNC(=N)N)C(=O)N[C@H](C(=O)N[C@@H](Cc2c[nH]c3ccccc23)C(N)=O)C(C)C)NC1=O` (single isomer, unassigned) [FP0335c Isomer 1, Ac-A-ME-I-L-D-A-H-I-S8-R-V-W-NH2] belongs 100 to 500 nM.
As to `CC[C@H](C)[C@@H]1NC(=O)[C@H](Cc2c[nH]cn2)NC(=O)[C@H](C)NC(=O)[C@H](CC(=O)O)NC(=O)[C@H](CC(C)C)NC(=O)[C@H]([C@@H](C)CC)NC(=O)[C@](C)(NC(=O)[C@H](C)NC(C)=O)CN(C)C(=O)OCC=CCCCCCC[C@@](C)(C(=O)N[C@@H](CCCNC(=N)N)C(=O)N[C@H](C(=O)N[C@@H](Cc2c[nH]c3ccccc23)C(N)=O)C(C)C)NC1=O` (single isomer, unassigned) [FP0335c Isomer 2, Ac-A-ME-I-L-D-A-H-I-S8-R-V-W-NH2], the concentration for a half-maximal effect (EC50) was less than 100 nM.
On to `CC[C@H](C)[C@@H]1NC(=O)[C@H](Cc2c[nH]cn2)NC(=O)[C@H](C)NC(=O)[C@H](CC(=O)O)NC(=O)[C@H](CC(C)C)NC(=O)[C@H]([C@@H](C)CC)NC(=O)[C@](C)(NC(=O)[C@H](C)NC(C)=O)CCCCCCC=CCOC(=O)N2CC[C@@](C(=O)N[C@@H](Cc3cccc4ccccc34)C(=O)N[C@H](C(=O)N[C@@H](Cc3c[nH]c4ccccc34)C(N)=O)C(C)C)(C2)NC1=O` (single isomer, unassigned) [FP0365c Isomer 1, Ac-A-R8-I-L-D-A-H-I-MB-1NapA-V-W-NH2], for which the EC50 was 500 to 5000 nM.
To `CC[C@H](C)[C@@H]1NC(=O)[C@H](Cc2c[nH]cn2)NC(=O)[C@H](C)NC(=O)[C@H](CC(=O)O)NC(=O)[C@H](CC(C)C)NC(=O)[C@H]([C@@H](C)CC)NC(=O)[C@](C)(NC(=O)[C@H](C)NC(C)=O)CCCCCCC=CCOC(=O)N2CC[C@@](C(=O)N[C@@H](Cc3cccc4ccccc34)C(=O)N[C@H](C(=O)N[C@@H](Cc3c[nH]c4ccccc34)C(N)=O)C(C)C)(C2)NC1=O` (single isomer, unassigned) [FP0365c Isomer 2, Ac-A-R8-I-L-D-A-H-I-MB-1NapA-V-W-NH2] belongs 500 to 5000 nM; to `CC[C@H](C)[C@@H]1NC(=O)[C@H](Cc2c[nH]cn2)NC(=O)[C@H](C)NC(=O)[C@H](CC(=O)O)NC(=O)[C@H](CC(C)C)NC(=O)[C@H]([C@@H](C)CC)NC(=O)[C@](C)(NC(=O)[C@H](C)NC(C)=O)CCCCCCC=CCOC(=O)N2CC[C@@](C(=O)N[C@@H](Cc3cccc4ccccc34)C(=O)N[C@H](C(=O)N[C@@H](Cc3c[nH]c4ccccc34)C(N)=O)C(C)C)(C2)NC1=O` (single isomer, unassigned) [FP0365c, Ac-A-R8-I-L-D-A-H-I-MB-1NapA-V-W-NH2], 100 to 500 nM; to `CC[C@H](C)[C@@H]1NC(=O)[C@H](Cc2c[nH]cn2)NC(=O)[C@H](C)NC(=O)[C@H](CC(=O)O)NC(=O)[C@H](CC(C)C)NC(=O)[C@H]([C@@H](C)CC)NC(=O)[C@](C)(NC(=O)[C@H](C)NC(C)=O)CCCCC=CCOC(=O)N(C)CC[C@@](C)(C(=O)N[C@@H](CCCNC(=N)N)C(=O)N[C@H](C(=O)N[C@@H](Cc2c[nH]c3ccccc23)C(N)=O)C(C)C)NC1=O` (single isomer, unassigned) [FP0502c Isomer 1, Ac-A-R6-I-L-D-A-H-I-MF-R-V-W-NH2], less than 100 nM.
Next, `CC[C@H](C)[C@@H]1NC(=O)[C@H](Cc2c[nH]cn2)NC(=O)[C@H](C)NC(=O)[C@H](CC(=O)O)NC(=O)[C@H](CC(C)C)NC(=O)[C@H]([C@@H](C)CC)NC(=O)[C@](C)(NC(=O)[C@H](C)NC(C)=O)CCCCC=CCOC(=O)N(C)CC[C@@](C)(C(=O)N[C@@H](CCCNC(=N)N)C(=O)N[C@H](C(=O)N[C@@H](Cc2c[nH]c3ccccc23)C(N)=O)C(C)C)NC1=O` (single isomer, unassigned) [FP0502c Isomer 2, Ac-A-R6-I-L-D-A-H-I-MF-R-V-W-NH2]: 100 to 500 nM; `CC[C@H](C)[C@@H]1NC(=O)[C@H](Cc2c[nH]cn2)NC(=O)[C@H](C)NC(=O)[C@H](CC(=O)O)NC(=O)[C@H](CC(C)C)NC(=O)[C@H]([C@@H](C)CC)NC(=O)[C@](C)(NC(=O)[C@H](C)NC(C)=O)CCCN(C)C(=O)OCC=CCCC[C@@](C)(C(=O)N[C@@H](CCCNC(=N)N)C(=O)N[C@H](C(=O)N[C@@H](Cc2c[nH]c3ccccc23)C(N)=O)C(C)C)NC1=O` (single isomer, unassigned) [FP0506c Isomer 1, Ac-A-MI-I-L-D-A-H-I-S5-R-V-W-NH2]: 100 to 500 nM; `CC[C@H](C)[C@@H]1NC(=O)[C@H](Cc2c[nH]cn2)NC(=O)[C@H](C)NC(=O)[C@H](CC(=O)O)NC(=O)[C@H](CC(C)C)NC(=O)[C@H]([C@@H](C)CC)NC(=O)[C@](C)(NC(=O)[C@H](C)NC(C)=O)CCCN(C)C(=O)OCC=CCCC[C@@](C)(C(=O)N[C@@H](CCCNC(=N)N)C(=O)N[C@H](C(=O)N[C@@H](Cc2c[nH]c3ccccc23)C(N)=O)C(C)C)NC1=O` (single isomer, unassigned) [FP0506c Isomer 2, Ac-A-MI-I-L-D-A-H-I-S5-R-V-W-NH2]: less than 100 nM.
